From PubChem BioAssay (NCI) come the findings set out here.

Test systems include HOP-92 NSCLC; IGROV1 ovarian; K-562 leukemia; NCI-H23 lung; OVCAR-5 ovarian; SK-MEL-2 melanoma; SK-OV-3 ovarian; TK-10 renal; UACC-62 melanoma; LOX IMVI melanoma.
What all share (experiment): NCI-60 cell line screen, 48 h

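Five compound concentrations were applied to cells in 96-well plates for 48 hours; endpoints were derived by simple linear interpolation of the resulting dose-response curve. Here, GI50 denotes the concentration required for 50% inhibition of growth. TGI denotes the concentration required for complete inhibition of growth.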

Regarding `O=[N+]([O-])/C=C/c1ccc(Cl)cc1[N+](=O)[O-]`, the GI50 in the assay with HOP-92 NSCLC was 13.2 µM; with IGROV1 ovarian, 2.01 µM; in the assay on K-562 leukemia it was 3.08 µM; in the assay with NCI-H23 lung, 2.86 µM; with OVCAR-5 ovarian it was 4.49 µM; in the assay with SK-MEL-2 melanoma, 12.3 µM. In addition, the GI50 in the assay with SK-OV-3 ovarian is 12.1 µM; in the assay on TK-10 renal, 1.78 µM; in the assay with UACC-62 melanoma it was 1.55 µM. Besides, the TGI with HOP-92 NSCLC came to 27.5 µM; with IGROV1 ovarian it was 5.85 µM; with K-562 leukemia, 24.1 µM; in the assay on NCI-H23 lung it was 10.6 µM; in the assay on OVCAR-5 ovarian it was 14.9 µM; in the assay with SK-MEL-2 melanoma, 39.7 µM. The TGI with SK-OV-3 ovarian stood at 24.5 µM; with TK-10 renal it was 3.48 µM; in the assay on UACC-62 melanoma, 3.64 µM.
Regarding `OCC(O)C(O)C(O)c1nn(-c2ccc(F)cc2)c2nc3cc(Cl)c(Cl)cc3nc12` (stereo unspecified), the TGI in the assay with IGROV1 ovarian was 63.6 µM; in the assay with K-562 leukemia, 43.2 µM; in the assay with LOX IMVI melanoma, 76.5 µM; in the assay with NCI-H23 lung, 48 µM; in the assay on OVCAR-5 ovarian, greater than 100 µM; with SK-MEL-2 melanoma it was 39.2 µM. For the same compound, the values for the TGI in the assay on SK-OV-3 ovarian, with TK-10 renal and in the assay on UACC-62 melanoma were 46.4 µM, 59.1 µM and 35.9 µM, respectively.
`COc1ccc(-c2cc(/C=C/C(=O)c3ccc(N)cc3)[nH]n2)cc1`: the GI50 was 2.27 µM with IGROV1 ovarian; 1.42 µM with K-562 leukemia; 3.22 µM in the assay with NCI-H23 lung; 2.06 µM in the assay on OVCAR-5 ovarian; 4.72 µM with SK-OV-3 ovarian; 2.81 µM with TK-10 renal. The GI50 with UACC-62 melanoma is 1.48 µM. Besides, the TGI in the assay on IGROV1 ovarian was determined as 6.45 µM; with K-562 leukemia, 11.6 µM; with NCI-H23 lung, 13.1 µM; with OVCAR-5 ovarian it was 4.92 µM; in the assay with SK-OV-3 ovarian it was 18 µM; in the assay with TK-10 renal, 13 µM. For the same compound, the TGI in the assay with UACC-62 melanoma turned out to be 2.94 µM.
Take `O=NNc1ccc(S(=O)(=O)c2ccc3ccccc3c2)cn1`: the TGI in the assay on IGROV1 ovarian, with K-562 leukemia, in the assay on NCI-H23 lung, with OVCAR-5 ovarian, in the assay on SK-MEL-2 melanoma and with SK-OV-3 ovarian was greater than 100 µM in each case. The TGI in the assay on TK-10 renal and in the assay with UACC-62 melanoma was greater than 100 µM in each case.
`Nc1ncc2ncn(C3CCC(CO)O3)c2n1` (stereo unspecified): the TGI in the assay with IGROV1 ovarian, in the assay on K-562 leukemia, in the assay on LOX IMVI melanoma, in the assay on NCI-H23 lung, in the assay with OVCAR-5 ovarian and in the assay with SK-MEL-2 melanoma was greater than 100 µM in each case. In addition, the TGI with SK-OV-3 ovarian, with TK-10 renal and in the assay on UACC-62 melanoma was greater than 100 µM each time.
As to `Cc1cc(S(N)(=O)=O)c(S/C(=N\NS(=O)(=O)c2ccccc2)c2ccc(Cl)cc2)cc1Cl`, the GI50 was 30.3 µM in the assay with HOP-92 NSCLC; greater than 100 µM in the assay on IGROV1 ovarian; 59 µM in the assay on K-562 leukemia; greater than 100 µM in the assay with LOX IMVI melanoma; 87.9 µM in the assay with NCI-H23 lung; greater than 100 µM with OVCAR-5 ovarian. The GI50 with SK-OV-3 ovarian, in the assay with TK-10 renal and in the assay on UACC-62 melanoma was greater than 100 µM throughout. For the same compound, the TGI is 84.9 µM in the assay with HOP-92 NSCLC; greater than 100 µM in the assay on IGROV1 ovarian; greater than 100 µM in the assay on K-562 leukemia; greater than 100 µM with LOX IMVI melanoma; greater than 100 µM in the assay with NCI-H23 lung; greater than 100 µM with OVCAR-5 ovarian. Besides, the TGI in the assay with SK-OV-3 ovarian, with TK-10 renal and in the assay on UACC-62 melanoma was greater than 100 µM in each case.
Turning to `N#[N+]c1ccc(Nc2ccccc2)cc1`, the GI50 in the assay with IGROV1 ovarian, in the assay on K-562 leukemia, with LOX IMVI melanoma, in the assay with NCI-H23 lung, in the assay with OVCAR-5 ovarian and in the assay on SK-MEL-2 melanoma was greater than 50 µg/mL throughout. For the same compound, the GI50 in the assay with SK-OV-3 ovarian, in the assay on TK-10 renal and in the assay on UACC-62 melanoma was greater than 50 µg/mL in each case. In addition, the TGI in the assay with IGROV1 ovarian, in the assay with K-562 leukemia, with LOX IMVI melanoma, in the assay on NCI-H23 lung, in the assay with OVCAR-5 ovarian and in the assay with SK-MEL-2 melanoma was greater than 50 µg/mL in each case. In addition, the TGI in the assay on SK-OV-3 ovarian, in the assay with TK-10 renal and in the assay with UACC-62 melanoma was greater than 50 µg/mL each time.
`O=CN1N=C(c2cccc(Nc3ccnc4cc(Cl)ccc34)c2)CC1c1ccc(Cl)cc1` (stereo unspecified): the GI50 in the assay on IGROV1 ovarian is 0.757 µM; in the assay on K-562 leukemia, 0.413 µM; in the assay on LOX IMVI melanoma it was 1.56 µM; in the assay with NCI-H23 lung, 2.48 µM; in the assay with OVCAR-5 ovarian it was greater than 100 µM; in the assay with SK-MEL-2 melanoma it was 2.05 µM. Moreover, the GI50 is 3.48 µM in the assay on SK-OV-3 ovarian and 1.63 µM in the assay on UACC-62 melanoma. The TGI is greater than 100 µM in the assay with IGROV1 ovarian; greater than 100 µM with K-562 leukemia; 10.3 µM in the assay on LOX IMVI melanoma; greater than 100 µM in the assay with NCI-H23 lung; greater than 100 µM with OVCAR-5 ovarian; greater than 100 µM with SK-MEL-2 melanoma. The values for the TGI in the assay on SK-OV-3 ovarian and in the assay on UACC-62 melanoma were 56.9 µM and greater than 100 µM, respectively.
Regarding `CCN(c1ccccc1)[C@H]1C(=O)N(c2ccc([N+](=O)[O-])cc2)[C@H]1c1ccc(OC)cc1`, the TGI in the assay with HOP-92 NSCLC was 81.8 µM; with IGROV1 ovarian it was greater than 100 µM; in the assay with K-562 leukemia, greater than 100 µM; in the assay with NCI-H23 lung it was greater than 100 µM; with OVCAR-5 ovarian, greater than 100 µM; in the assay with SK-MEL-2 melanoma, greater than 100 µM. Also, the TGI with SK-OV-3 ovarian, with TK-10 renal and with UACC-62 melanoma was greater than 100 µM each time.
On to `COc1cccc(/C=N\NC(=O)C(C)SC(C)C(=O)N/N=C/c2cccc(OC)c2)c1` (stereo unspecified), for which the TGI in the assay with HOP-92 NSCLC was 38.8 µM; in the assay on IGROV1 ovarian it was 41.7 µM; with K-562 leukemia, greater than 100 µM; with NCI-H23 lung it was 73.2 µM; in the assay with OVCAR-5 ovarian, greater than 100 µM; in the assay with SK-MEL-2 melanoma it was greater than 62.6 µM. The TGI in the assay with SK-OV-3 ovarian worked out at 32.4 µM; with TK-10 renal, 36.6 µM; in the assay with UACC-62 melanoma, 97.4 µM.
`COc1cc(OC)c2c(=O)c3cccc([N+](=O)[O-])c3n(C)c2c1`: the TGI in the assay on IGROV1 ovarian, in the assay on K-562 leukemia, in the assay with LOX IMVI melanoma, in the assay on NCI-H23 lung, with SK-MEL-2 melanoma and in the assay on SK-OV-3 ovarian was greater than 100 µM in each case. Also, the TGI in the assay on TK-10 renal and with UACC-62 melanoma was greater than 100 µM in each case.
`OCCN(CO)CO`: the TGI in the assay with HOP-92 NSCLC, in the assay with IGROV1 ovarian, with K-562 leukemia, with NCI-H23 lung, in the assay with SK-MEL-2 melanoma and with SK-OV-3 ovarian was greater than 100 µM throughout. For the same compound, the TGI with TK-10 renal and in the assay with UACC-62 melanoma was greater than 100 µM throughout.
With `Cc1cc(NN=C(c2ccc(O)cc2)c2ccc(O)cc2)c([N+](=O)[O-])cc1[N+](=O)[O-]`, the GI50 with K-562 leukemia is 92.7 µM; in the assay with LOX IMVI melanoma it was 3.8 µM; with NCI-H23 lung, 3.8 µM; in the assay with OVCAR-5 ovarian it was 11.1 µM; in the assay on SK-OV-3 ovarian, 2.98 µM; in the assay with TK-10 renal, 4.53 µM. For the same compound, the GI50 in the assay with UACC-62 melanoma was 4.77 µM. The TGI in the assay on K-562 leukemia is greater than 100 µM; in the assay with LOX IMVI melanoma, 21.2 µM; with NCI-H23 lung, 47.3 µM; in the assay on OVCAR-5 ovarian, 36.6 µM; in the assay on SK-OV-3 ovarian, 19.9 µM; in the assay on TK-10 renal, 37.5 µM. The same compound registered a TGI in the assay with UACC-62 melanoma of 19.3 µM.
As for `C[C@H]1CC[P+](C)(c2ccccc2)C1` (stereo partly specified), the TGI in the assay with IGROV1 ovarian, in the assay on K-562 leukemia, with LOX IMVI melanoma, in the assay with NCI-H23 lung, with OVCAR-5 ovarian and with SK-MEL-2 melanoma was greater than 100 µM each time. Moreover, the TGI in the assay on SK-OV-3 ovarian, in the assay on TK-10 renal and in the assay with UACC-62 melanoma was greater than 100 µM in each case.
As for `CCCCCC[C@H]1C(=O)O[C@H](C)[C@H](NC(=O)c2cccc(NC=O)c2OC)C(=O)O[C@@H](C)[C@@H]1OC(=O)CCC` (tested in a mixture with another compound), the GI50 in the assay with K-562 leukemia was 4.99 µM; in the assay on LOX IMVI melanoma, 8.67 µM; in the assay on NCI-H23 lung it was 9.53 µM; in the assay with OVCAR-5 ovarian it was 20.9 µM; in the assay on SK-MEL-2 melanoma, 18.1 µM; with SK-OV-3 ovarian, 24.2 µM. The GI50 in the assay on TK-10 renal is 13.3 µM; in the assay on UACC-62 melanoma, 6.54 µM. For the same compound, the TGI with K-562 leukemia amounted to 33.9 µM; with LOX IMVI melanoma, 23.8 µM; with NCI-H23 lung it was 49.2 µM; in the assay with OVCAR-5 ovarian, 47.6 µM; in the assay with SK-MEL-2 melanoma, 60.5 µM; with SK-OV-3 ovarian, 66.1 µM. Also, the TGI in the assay on TK-10 renal was found to be 29.6 µM; with UACC-62 melanoma, 21.2 µM.
In the case of `COc1cc(N(C)C)c(OC)cc1C=C1C=CC=C1`, the TGI with HOP-92 NSCLC, in the assay with IGROV1 ovarian, with K-562 leukemia, with NCI-H23 lung, in the assay on OVCAR-5 ovarian and in the assay with SK-MEL-2 melanoma was greater than 100 µM throughout. The TGI in the assay on SK-OV-3 ovarian, in the assay on TK-10 renal and in the assay on UACC-62 melanoma was greater than 100 µM each time.
As for `CN(C)c1ccc(C(O)C2=CC(=O)c3ccccc3C2=O)cc1` (stereo unspecified), the GI50 with HOP-92 NSCLC is 1.56 µM; in the assay on IGROV1 ovarian it was 1.94 µM; with NCI-H23 lung, 27.2 µM; with OVCAR-5 ovarian, 22.4 µM; with SK-MEL-2 melanoma it was 2.88 µM; in the assay on SK-OV-3 ovarian it was 3.07 µM. Moreover, the GI50 with TK-10 renal was 12.1 µM. In addition, the TGI was 4.16 µM in the assay with HOP-92 NSCLC; 4.52 µM in the assay on IGROV1 ovarian; 97.5 µM with NCI-H23 lung; 52.4 µM with OVCAR-5 ovarian; 11.7 µM in the assay with SK-MEL-2 melanoma; 15.5 µM with SK-OV-3 ovarian. The compound also came in with a TGI in the assay with TK-10 renal of 44.3 µM.
